Starred links: 1 amine or outer side, 2 acyl side, 3 side chain; linkers in the order of their positions; H or OH if unused. Non-standard residues stand in square brackets, D forms with d. Residues, ends and D or L forms follow the SMILES beside them. Groups on a side chain read outwards from the residue. *: point of attachment. γGlu = O=C(O)[C@H](CCC(=O)[*:2])N[*:1]; Palmitoyl = CCCCCCCCCCCCCCCC(=O)*; Ac4c = NC1(C(=O)O)CCC1; Aib = CC(C)(N)C(=O)O
T1: endogenous GLP-1 receptor of a murine insulinoma cell line (murine, UniProt O35659 22-463)
T1 sequence (looked up): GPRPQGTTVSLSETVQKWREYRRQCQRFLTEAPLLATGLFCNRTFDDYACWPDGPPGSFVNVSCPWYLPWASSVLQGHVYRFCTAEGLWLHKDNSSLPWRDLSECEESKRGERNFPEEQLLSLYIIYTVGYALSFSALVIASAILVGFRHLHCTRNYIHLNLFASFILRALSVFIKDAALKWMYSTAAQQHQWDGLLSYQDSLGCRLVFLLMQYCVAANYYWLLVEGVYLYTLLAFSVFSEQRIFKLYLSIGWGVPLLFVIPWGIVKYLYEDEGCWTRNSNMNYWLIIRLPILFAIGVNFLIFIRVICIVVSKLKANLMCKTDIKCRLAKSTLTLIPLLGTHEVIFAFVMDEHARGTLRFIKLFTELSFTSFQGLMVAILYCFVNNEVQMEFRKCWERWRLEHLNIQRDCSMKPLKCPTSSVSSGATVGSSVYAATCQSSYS


Key:
[1] = target: T2, human glucagon receptor (Glucagon-R) (Homo sapiens, UniProt P47871); assay: Glucagon receptor efficacy assay (cAMP AlphaScreen, CHO cells); assay type: cell-based; settings: cAMP formation, CHO cells expressing human Glucagon-R; read-out: EC50 hGCGR CHO-K1
T2 construct: expressed in transfected cells
Protocol: (§1) The mammalian expression vectors encoding the Glucagon-R or the GLP-1-R were transfected into Chinese hamster ovary (CHO) cells by the Attractene method. Stably expressing clones were obtained by Zeocin selection (250 μg/mL) upon limited dilution of cells resistant to the selection pressure. […] One Glucagon-R expressing clone and one GLP-1-R expressing clone were chosen for compound profiling.
(§2) CHO cells expressing the human Glucagon-R, or human GLP-1-R were seeded 24 hours prior to the assay at 30,000 cells per well in 96-well microtiter plates in culture in 100 μl growth medium. On the day of analysis, growth medium was removed and the cells were washed once with 200 μl of assay buffer (Krebs-Ringer-buffer—KRBH). The buffer was removed and the cells were incubated for 15 min at room temperature in 10 μl KRBH (KRBH+10 mM HEPES, 5 mM NaHCO3, 0.1% (V/V) BSA) with 0.1 mM IBMX in deionized water containing increasing concentrations of test peptides. The reaction was stopped by the addition of lysis buffer (0.1% w/v BSA, 5 mM HEPES, 0.3% v/v Tween-20). After cell lysis for 10 min at room temperature, lysates were transferred to 384-well plates and 10 μl of acceptor/donorbead mixture as contained in the AlphaScreen™ cAMP Functional Assay Kit was added. After one hour of incubation at room temperature in the dark, the cAMP content was determined applying the AlphaScreen™ cAMP Functional Assay Kit from Perkin-Elmer according to manufacturer instructions. […] The GLP-1/glucagon ratio is calculated as defined earlier.

[2] = target: T3, human glucagon-like peptide 1 receptor (GLP-1R) (Homo sapiens, UniProt P43220); assay: GLP-1 receptor efficacy assay (cAMP AlphaScreen, CHO cells); assay type: cell-based; settings: for Ratio GLP-1/Glucagon: EC50 [GLP-1R] / EC50 [Glucagon-R], human receptors in CHO-K1; for EC50: cAMP formation, CHO cells expressing human GLP-1-R, read-out: EC50 hGLP-1R CHO-K1
T3 construct: expressed in transfected cells
Protocol: as §1, §2

[3] = target: T1, endogenous GLP-1 receptor of a murine …; assay: cell-based or functional assay
[4] = target: human glucagon-like peptide 1 receptor (GLP-1R) (human, UniProt P43220 24-463); assay: cell-based or functional assay
[5] = target: human glucagon receptor (Glucagon-R) (human, UniProt P47871 26-477); assay: cell-based or functional assay
[6] = target: endogenous glucagon receptor of primary rat hepatocytes (rat, UniProt P30082 27-485); assay: cell-based or functional assay
Sequence of endogenous glucagon receptor of primary rat hepatocytes (P30082 27-485): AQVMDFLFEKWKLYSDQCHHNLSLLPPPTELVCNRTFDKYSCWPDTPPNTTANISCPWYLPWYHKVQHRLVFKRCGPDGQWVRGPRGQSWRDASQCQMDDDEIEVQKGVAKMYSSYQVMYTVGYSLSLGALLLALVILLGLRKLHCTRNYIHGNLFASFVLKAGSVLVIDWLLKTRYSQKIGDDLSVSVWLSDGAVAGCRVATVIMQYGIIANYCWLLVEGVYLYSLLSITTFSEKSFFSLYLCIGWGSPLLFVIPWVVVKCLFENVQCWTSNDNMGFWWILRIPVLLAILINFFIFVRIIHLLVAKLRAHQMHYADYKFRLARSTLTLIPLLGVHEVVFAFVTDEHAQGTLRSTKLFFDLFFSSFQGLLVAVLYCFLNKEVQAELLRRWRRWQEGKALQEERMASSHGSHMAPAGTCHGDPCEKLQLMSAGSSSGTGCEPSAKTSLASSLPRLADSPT

T2 sequence (P47871 26-477): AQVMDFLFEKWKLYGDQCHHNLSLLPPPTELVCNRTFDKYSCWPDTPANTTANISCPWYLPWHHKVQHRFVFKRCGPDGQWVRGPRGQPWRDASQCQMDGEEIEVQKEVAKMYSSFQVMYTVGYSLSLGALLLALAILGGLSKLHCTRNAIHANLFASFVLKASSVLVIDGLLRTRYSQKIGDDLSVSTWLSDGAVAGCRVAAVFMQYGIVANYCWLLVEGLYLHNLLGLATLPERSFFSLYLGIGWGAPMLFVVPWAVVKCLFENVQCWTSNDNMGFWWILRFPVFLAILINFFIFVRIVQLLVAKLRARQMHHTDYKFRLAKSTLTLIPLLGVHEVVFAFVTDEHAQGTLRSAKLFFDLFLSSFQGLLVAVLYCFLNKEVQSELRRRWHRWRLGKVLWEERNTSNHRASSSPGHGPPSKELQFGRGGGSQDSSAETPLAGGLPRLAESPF
T3 sequence (P43220 24-463): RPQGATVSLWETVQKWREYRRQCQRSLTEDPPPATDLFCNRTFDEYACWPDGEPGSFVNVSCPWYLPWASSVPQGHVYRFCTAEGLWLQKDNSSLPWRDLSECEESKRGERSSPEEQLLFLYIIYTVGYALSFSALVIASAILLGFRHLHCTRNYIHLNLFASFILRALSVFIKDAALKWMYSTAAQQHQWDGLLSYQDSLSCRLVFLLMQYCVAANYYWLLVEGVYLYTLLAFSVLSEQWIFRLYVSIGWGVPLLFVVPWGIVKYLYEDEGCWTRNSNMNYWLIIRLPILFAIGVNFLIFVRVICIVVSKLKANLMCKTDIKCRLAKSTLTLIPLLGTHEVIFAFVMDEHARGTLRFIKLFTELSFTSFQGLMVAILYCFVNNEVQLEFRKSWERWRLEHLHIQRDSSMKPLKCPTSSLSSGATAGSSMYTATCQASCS
Sequence of human glucagon receptor (Glucagon-R) (human, UniProt P47871 26-477) (P47871 26-477): as the sequence (P47871 26-477) above

| Molecule | EC50 [1] [nM] | Ratio GLP-1/Glucagon [2] | EC50 [2] [nM] | EC50 [nM] (cAMP in murine insulinoma cell line) [3] | EC50 hGLP-1R CHO-K1 [nM] (cAMP, AlphaScreen) [4] | EC50 hGCGR CHO-K1 [nM] (cAMP, AlphaScreen) [5] | EC50 [nM] (inhibition of glycogen synthesis rate in primary rat hepatocytes) [6] |
| --- | --- | --- | --- | --- | --- | --- | --- |
| CCCCCCCCCCCCCCCC(=O)N[C@@H](CCC(=O)NCCCC[C@H](NC(=O)[C@H](CO)NC(=O)[C@H](CC(=O)O)NC(=O)[C@H](CC(C)C)NC(=O)[C@H](Cc1ccc(O)cc1)NC(=O)[C@H](CCCCN)NC(=O)[C@H](CO)NC(=O)[C@H](Cc1ccc(O)cc1)NC(=O)[C@H](CC(=O)O)NC(=O)[C@H](CO)NC(=O)[C@@H](NC(=O)[C@H](Cc1ccccc1)NC(=O)[C@@H](NC(=O)CNC(=O)[C@H](CCC(N)=O)NC(=O)C1(NC(=O)[C@@H](N)Cc2c[nH]cn2)CCC1)[C@@H](C)O)[C@@H](C)O)C(=O)N[C@@H](C)C(=O)N[C@@H](C)C(=O)N[C@@H](Cc1c[nH]cn1)C(=O)N[C@@H](CC(=O)O)C(=O)N[C@@H](Cc1ccccc1)C(=O)N[C@H](C(=O)N[C@@H](CCC(=O)O)C(=O)N[C@@H](Cc1c[nH]c2ccccc12)C(=O)N[C@@H](CC(C)C)C(=O)N[C@@H](CC(C)C)C(=O)N[C@@H](CO)C(=O)N[C@@H](C)C(N)=O)C(C)C)C(=O)O [Compound 4] | 0.12 | 2.59 |  |  |  |  |  |
| CCCCCCCCCCCCCCCC(=O)N[C@@H](CCC(=O)NCCCC[C@H](NC(=O)[C@H](CO)NC(=O)[C@H](CC(=O)O)NC(=O)[C@H](CC(C)C)NC(=O)[C@H](Cc1ccc(O)cc1)NC(=O)[C@H](CCCCN)NC(=O)[C@H](CO)NC(=O)[C@H](Cc1ccc(O)cc1)NC(=O)[C@H](CC(=O)O)NC(=O)[C@H](CO)NC(=O)[C@@H](NC(=O)[C@H](Cc1ccccc1)NC(=O)[C@@H](NC(=O)CNC(=O)[C@H](Cc1c[nH]cn1)NC(=O)[C@H](CO)NC(=O)[C@@H](N)Cc1c[nH]cn1)[C@@H](C)O)[C@@H](C)O)C(=O)N[C@@H](C)C(=O)N[C@@H](C)C(=O)N[C@@H](Cc1c[nH]cn1)C(=O)N[C@@H](CC(=O)O)C(=O)N[C@@H](Cc1ccccc1)C(=O)N[C@H](C(=O)N[C@@H](CCC(=O)O)C(=O)N[C@@H](Cc1c[nH]c2ccccc12)C(=O)N[C@@H](CC(C)C)C(=O)N[C@@H](CC(C)C)C(=O)N[C@@H](CO)C(=O)N[C@@H](C)C(N)=O)C(C)C)C(=O)O [Compound 5] (H-HSHGTFTSDYSKYLDSK([γGlu-Palmitoyl])AAHDFVEWLLSA-NH2) | 0.12 | 2.25 | 0.27 |  |  |  |  |
| H-H[Ac4c]QGTFTSDYSKYLDSK([γGlu-Palmitoyl])AAHDFVEWLLSA-NH2 (SMILES CCCCCCCCCCCCCCCC(=O)N[C@@H](CCC(=O)NCCCC[C@H](NC(=O)[C@H](CO)NC(=O)[C@H](CC(=O)O)NC(=O)[C@H](CC(C)C)NC(=O)[C@H](Cc1ccc(O)cc1)NC(=O)[C@H](CCCCN)NC(=O)[C@H](CO)NC(=O)[C@H](Cc1ccc(O)cc1)NC(=O)[C@H](CC(=O)O)NC(=O)[C@H](CO)NC(=O)[C@@H](NC(=O)[C@H](Cc1ccccc1)NC(=O)[C@@H](NC(=O)CNC(=O)[C@H](CCC(N)=O)NC(=O)C1(NC(=O)[C@@H](N)Cc2c[nH]cn2)CCC1)[C@@H](C)O)[C@@H](C)O)C(=O)N[C@@H](C)C(=O)N[C@@H](C)C(=O)N[C@@H](Cc1c[nH]cn1)C(=O)N[C@@H](CC(=O)O)C(=O)N[C@@H](Cc1ccccc1)C(=O)N[C@H](C(=O)N[C@@H](CCC(=O)O)C(=O)N[C@@H](Cc1c[nH]c2ccccc12)C(=O)N[C@@H](CC(C)C)C(=O)N[C@@H](CC(C)C)C(=O)N[C@@H](CO)C(=O)N[C@@H](C)C(N)=O)C(C)C)C(=O)O) [Compound 4: H-H-Ac4c-QGTFTSDYSKYLDS-K(Hexadecanoyl-isoGlu)-AAHDFVEWLLSA-NH2] |  |  |  | 0.32 | 0.31 | 0.12 | 0.37 |

More lines, now with the values ahead:

| EC50 [1] [nM] | Ratio GLP-1/Glucagon [2] | EC50 [2] [nM] | EC50 [nM] (cAMP in murine insulinoma cell line) [3] | EC50 hGLP-1R CHO-K1 [nM] (cAMP, AlphaScreen) [4] | EC50 hGCGR CHO-K1 [nM] (cAMP, AlphaScreen) [5] | EC50 [nM] (inhibition of glycogen synthesis rate in primary rat hepatocytes) [6] | Molecule |
| --- | --- | --- | --- | --- | --- | --- | --- |
| 0.1 | 2.7 | 0.27 |  |  |  |  | CCCCCCCCCCCCCCCC(=O)N[C@@H](CCC(=O)NCCCC[C@H](NC(=O)[C@H](CCC(=O)O)NC(=O)[C@H](CC(=O)O)NC(=O)[C@H](CC(C)C)NC(=O)[C@H](Cc1ccc(O)cc1)NC(=O)[C@H](CCCCN)NC(=O)[C@H](CO)NC(=O)[C@H](Cc1ccc(O)cc1)NC(=O)[C@H](CC(=O)O)NC(=O)[C@H](CO)NC(=O)[C@@H](NC(=O)[C@H](Cc1ccccc1)NC(=O)[C@@H](NC(=O)CNC(=O)[C@H](CCC(N)=O)NC(=O)[C@H](CC)NC(=O)[C@@H](N)Cc1c[nH]cn1)[C@@H](C)O)[C@@H](C)O)C(=O)N[C@@H](C)C(=O)N[C@@H](C)C(=O)N[C@@H](CCCCN)C(=O)N[C@@H](CC(=O)O)C(=O)N[C@@H](Cc1ccccc1)C(=O)N[C@H](C(=O)N[C@@H](CCC(=O)O)C(=O)N[C@@H](Cc1c[nH]c2ccccc12)C(=O)N[C@@H](CC(C)C)C(=O)N[C@@H](CCC(=O)O)C(=O)N[C@@H](CO)C(=O)N[C@@H](C)C(N)=O)[C@@H](C)CC)C(=O)O [Compound 10] |
| 0.1 |  |  |  |  |  |  | CCCCCCCCCCCCCCCC(=O)N[C@@H](CCC(=O)NCCCC[C@H](NC(=O)[C@H](CCC(=O)O)NC(=O)[C@H](CC(=O)O)NC(=O)[C@H](CC(C)C)NC(=O)[C@H](Cc1ccc(O)cc1)NC(=O)[C@H](CCCCN)NC(=O)[C@H](CO)NC(=O)[C@H](Cc1ccc(O)cc1)NC(=O)[C@H](CC(=O)O)NC(=O)[C@H](CO)NC(=O)[C@@H](NC(=O)[C@H](Cc1ccccc1)NC(=O)[C@@H](NC(=O)CNC(=O)[C@H](Cc1c[nH]cn1)NC(=O)C1(NC(=O)[C@@H](N)Cc2c[nH]cn2)CCC1)[C@@H](C)O)[C@@H](C)O)C(=O)N[C@@H](C)C(=O)N[C@@H](C)C(=O)N[C@@H](CCCCN)C(=O)N[C@@H](CC(=O)O)C(=O)N[C@@H](Cc1ccccc1)C(=O)N[C@H](C(=O)N[C@@H](CCC(=O)O)C(=O)N[C@@H](Cc1c[nH]c2ccccc12)C(=O)N[C@@H](CC(C)C)C(=O)N[C@@H](CCC(=O)O)C(=O)N[C@@H](CO)C(=O)N[C@@H](C)C(N)=O)[C@@H](C)CC)C(=O)O [Compound 15] |
|  |  |  | 0.21 | 0.27 | 0.08 | 2.26 | H-H[Aib]QGTFTSDYSKYLDEK([γGlu-Palmitoyl])AAKDFIEWLEEE-NH2 (SMILES CCCCCCCCCCCCCCCC(=O)N[C@@H](CCC(=O)NCCCC[C@H](NC(=O)[C@H](CCC(=O)O)NC(=O)[C@H](CC(=O)O)NC(=O)[C@H](CC(C)C)NC(=O)[C@H](Cc1ccc(O)cc1)NC(=O)[C@H](CCCCN)NC(=O)[C@H](CO)NC(=O)[C@H](Cc1ccc(O)cc1)NC(=O)[C@H](CC(=O)O)NC(=O)[C@H](CO)NC(=O)[C@@H](NC(=O)[C@H](Cc1ccccc1)NC(=O)[C@@H](NC(=O)CNC(=O)[C@H](CCC(N)=O)NC(=O)C(C)(C)NC(=O)[C@@H](N)Cc1c[nH]cn1)[C@@H](C)O)[C@@H](C)O)C(=O)N[C@@H](C)C(=O)N[C@@H](C)C(=O)N[C@@H](CCCCN)C(=O)N[C@@H](CC(=O)O)C(=O)N[C@@H](Cc1ccccc1)C(=O)N[C@H](C(=O)N[C@@H](CCC(=O)O)C(=O)N[C@@H](Cc1c[nH]c2ccccc12)C(=O)N[C@@H](CC(C)C)C(=O)N[C@@H](CCC(=O)O)C(=O)N[C@@H](CCC(=O)O)C(=O)N[C@@H](CCC(=O)O)C(N)=O)[C@@H](C)CC)C(=O)O) [Compound 17: H-H-Aib-QGTFTSDYSKYLDE-K(Hexadecanoyl-isoGlu)-AAKDFIEWLEEE-NH2] |

Source: patent publication US9988429B2, “Glucagon analogues” (Zealand Pharma A/S, priority 2013, dated 2018)
